According to ChEMBL document CHEMBL1156829 (Proc Natl Acad Sci U S A, 2008):

Key:
Plasmodium falciparum [1] = test: NOVARTIS: Inhibition of Plasmodium falciparum W2 (drug-resistant) proliferation in erythrocyte-based infection assay; assay type: functional, organism-based; details: Plasmodium falciparum, W2; read-out: EC50
Plasmodium falciparum [2] = test: NOVARTIS: Inhibition of Plasmodium falciparum 3D7 (drug-susceptible) proliferation in erythrocyte-based infection assay; assay type: functional, organism-based; details: Plasmodium falciparum, 3D7
[3] = NOVARTIS: Cytotoxicity against human hepatocellular carcinoma cell line (Huh7); assay type: toxicity, cell-based, Huh-7; details: Huh7 cells (hepatocellular carcinoma cell line)

SMILES	EC50 (Plasmodium falciparum [1])	EC50 (Plasmodium falciparum [2])	CC50 [3]
CN(C)c1cc(NC(=O)Nc2cccc(Cl)c2)c2ccccc2n1	292 nM	76.5 nM	> 10000 nM
COc1ccc2nc(C)cc(Nc3ccc(Oc4ccc5ccccc5c4)c(Cl)c3)c2c1	206 nM	166 nM	7070 nM
Cc1ccccc1Nc1nc(NCCO)c2ccccc2n1	689 nM	1710 nM	23700 nM
CC(C)NC(=O)c1cc(NC(=O)c2cccs2)ccc1N1CCc2ccccc2C1	479 nM	1260 nM	16300 nM
COc1ccc(C=NNc2nc(Nc3ccc([N+](=O)[O-])cc3)nc(N3CCN(C)CC3)n2)cc1OC	444 nM	1820 nM	15200 nM
Cc1cc(N2CCN(C)CC2)nc2ccc(NC(=O)/C=C/c3ccc4c(c3)OCO4)cc12	292 nM	> 1250 nM	> 10000 nM
COC(=O)c1cccc(NC(=O)C(=Cc2cccc([N+](=O)[O-])c2)NC(=O)c2ccccc2OC)c1	2910 nM	994 nM	> 100000 nM
O=C(Nc1ccc(C2=NCCN2)cc1)c1cc(Cl)c(C(=O)Nc2ccc(C3=NCCN3)cc2)cc1Cl	308 nM	66 nM	> 10000 nM
CC(C)CNC(=O)c1cnc(NCCCn2ccnc2)nc1NC1CCCC1	> 298 nM	678 nM	> 10000 nM
N=c1c2ccccc2nnn1-c1cccc(C(F)(F)F)c1	308 nM	134 nM	> 10000 nM
O=C(Nc1ccccc1O)c1ccc(Cl)cc1	1090 nM	3260 nM	36200 nM
Cc1cccc(NC(=S)NC2CC3CCCC(C2)N3CCc2ccccc2)c1 (stereo not given)	914 nM	668 nM	30700 nM
Cc1ccc(C)c(S(=O)(=O)N=C2C=C(SCC(=O)O)C(=O)c3ccccc32)c1	527 nM	3600 nM	17700 nM
COc1ccc2nc3ccccc3c(N)c2c1	176 nM	133 nM	5720 nM
COc1ccc(CCN2CC(CNC(=O)Cc3cccnc3)C(c3ccc(N(C)C)cc3)C2)cc1OC (stereo not given)	> 306 nM	997 nM	> 10000 nM
CCc1ccc2[nH]c(=O)c(CN(Cc3ccc(OC)cc3)C(=S)NCCCN(CC)CC)cc2c1	554 nM	3460 nM	18200 nM
COc1ccc(CN2CCc3nc(N4CCCCC4)sc3C2)cc1	301 nM	293 nM	> 10000 nM
CCOC(=O)N1CCc2c(sc(NCc3ccc(C)o3)c2C(=O)Nc2ccc(OC)cc2OC)C1	3010 nM	9100 nM	> 100000 nM
CC[n+]1c(C)cc2c([nH]c3ccccc32)c1C	3000 nM	1240 nM	> 100000 nM
CCOc1ccc(C2C(C(=O)OCCc3ccccc3)=C(C)NC3=C2C(=O)CC(C)(C)C3)cc1 (stereo not given)	2940 nM	10700 nM	> 100000 nM
Cc1ccc(-n2cc(C(=O)N(C)Cc3ccccc3)c3ccccc3c2=O)cc1C	2930 nM	> 9840 nM	> 100000 nM
Cc1nc(-c2nc3c(s2)CN(C(=O)COc2ccc(Cl)cc2)CC3)cs1	2920 nM	> 10700 nM	> 100000 nM
Cc1cc(N2CCCC2)nc2ccc(NC(=S)NCCN3CCc4ccccc4C3)cc12	629 nM	44 nM	21500 nM
COCCNCC(O)CON=C1c2ccccc2-c2ccccc21 (stereo not given)	704 nM	4790 nM	23300 nM
COCCN(C)C(=O)COC(c1cccs1)c1cccnc1Cl (stereo not given)	299 nM	407 nM	> 10000 nM
CCOC(=O)c1c(C)oc2c1c1c(c3ccccc32)OCN(C2CCCC2)C1	2960 nM	11100 nM	> 100000 nM
Fc1ccc(Nc2nc(NCC3CCCO3)c3ccccc3n2)cc1 (stereo not given)	282 nM	214 nM	9530 nM
CCCc1c(C)nc2ccc(C)cc2c1O	2960 nM	3220 nM	> 100000 nM

SMILES	EC50 (Plasmodium falciparum [1])	EC50 (Plasmodium falciparum [2])	CC50 [3]
COc1ccc2cc(CNCCCO)c(N3CCN(c4ccc(F)cc4)CC3)nc2c1	600 nM	2990 nM	20000 nM
O=C(CCn1c(=O)[nH]c2ccccc21)NCC1Cc2cccc(-c3ccncc3)c2O1 (stereo not given)	2980 nM	3250 nM	> 100000 nM
COCCn1c(SCC(=O)c2ccc(C)cc2C)nnc1-c1ccco1	295 nM	> 868 nM	> 10000 nM
CCCCNC(=S)N(Cc1cccs1)Cc1cc2cc(C)ccc2[nH]c1=O	295 nM	1020 nM	> 10000 nM
COc1ccccc1-n1c(S)nnc1-c1ccccc1O	295 nM	276 nM	> 10000 nM
O=C(Nc1cc(Cl)ccc1O)c1cnn2c(C(F)(F)F)cc(-c3ccc(F)cc3)nc12	2910 nM	> 8740 nM	> 100000 nM
O=C(NCc1ccccc1)c1cnc(NCCC(c2ccccc2)c2ccccc2)nc1NCC1CCCCC1	292 nM	527 nM	> 10000 nM
CCCCCCCN(CCCCCCC)CC(O)c1cc2ccccc2c2cc(Br)ccc12 (stereo not given)	136 nM	867 nM	> 4630 nM
CC1(C)O[C@@H]2OC([C@@H](O)CNc3ccc([N+](=O)[O-])cc3[N+](=O)[O-])C(O)[C@@H]2O1 (stereo not given in full)	366 nM	299 nM	12000 nM
COC1=CC(=O)c2c(ccc3c(OC)c(O)ccc23)C1=O	302 nM	200 nM	> 10000 nM
CCOC(=O)c1ccc2nc(C)cc(Nc3ccc(N4CCCCC4)cc3)c2c1	634 nM	292 nM	21200 nM
CCOc1ccc(Nc2nc(NCc3ccccc3)c3ccccc3n2)cc1	170 nM	88.2 nM	5670 nM
CCOc1ccc2[nH]c3c(NCCCN(C)C)ncnc3c2c1	778 nM	203 nM	26600 nM
Cc1ccc(NC(=O)COc2ccc(Cl)cc2Cl)nc1	> 3030 nM	> 5570 nM	> 100000 nM
CCN1CCN(Cc2cc(=O)oc3cc(-c4ccccc4)c(O)cc23)CC1	385 nM	284 nM	12500 nM
C=C[C@H]1CN2CC[C@H]1C[C@@H]2[C@@H](OC(=O)c1cccs1)c1ccnc2ccccc12	294 nM	1130 nM	> 10000 nM
Cc1cc(Br)cc(Cl)c1OC(=O)c1ccno1	3000 nM	> 12500 nM	> 100000 nM
Cc1n(-c2ccccc2)c2c([n+]1C)C(=O)c1ccccc1C2=O	12.9 nM	6.55 nM	427 nM
C=CCN1/C(=C/C=C/c2sc3ccccc3[n+]2CC=C)Sc2ccccc21	292 nM	2030 nM	> 10000 nM
c1ccc([Si]2(c3ccccc3)N[Si](c3ccccc3)(c3ccccc3)N[Si](c3ccccc3)(c3ccccc3)N2)cc1	299 nM	521 nM	> 10000 nM
Cn1c2ccncc2c2cc([N+](=O)[O-])ccc21	938 nM	833 nM	31400 nM
CC(C)N(CC(=O)Nc1cc(C(C)(C)C)nn1-c1ccc(Cl)c(Cl)c1)C(=O)c1ccc2ccccc2c1	3000 nM	1310 nM	> 100000 nM
CCc1cc2c(Nc3ccncc3)ncnc2s1	2940 nM	2500 nM	> 100000 nM
CCN1C(C)=C(C)S/C1=C\c1ccc2cc(C)ccc2[n+]1C	170 nM	227 nM	5720 nM
CCc1ccc(-n2c(C(CC)N(CCc3ccccc3)C(=O)c3cc(OC)cc(OC)c3)nc3ccccc3c2=O)cc1 (stereo not given)	292 nM	> 547 nM	> 10000 nM
Cc1onc(O)c1CC(N)C(=O)O (stereo not given)	302 nM	158 nM	> 10000 nM
CCc1ccc2[nH]c(=O)c(CN(CCN(CC)CC)C(=S)NCCCN(CC)CC)cc2c1	1390 nM	2380 nM	45600 nM
